This passage reports T/C results from PubChem BioAssay AID200 (DTP/NCI, 2004).

The test system of this assay is B6C3F1 mice, B16 melanoma ip, median survival T/C. The assay can be described thus: NCI In Vivo Anticancer Drug Screen. Data for tumor model B16 Melanoma (intraperitoneal) in B6C3F1 mice. To be noted: endpoint: median survival time, higher = longer survival. Summed up:
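Mice bearing transplanted tumor were dosed with compound or vehicle, and survival was recorded. Activity is expressed as the treated-group measurement (T) divided by the vehicle control measurement (C).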

Setting [1] is: dose: 6.25 mg/kg/injection, schedule: Q01DX009 (ip), vehicle: Klucel (hydroxypropylcellulose) (HPC).
The mark [2] stands for this setting: dose: 12.5 mg/kg/injection, schedule: Q01DX009 (ip), vehicle: Klucel (hydroxypropylcellulose) (HPC).
The mark [3] stands for this setting: dose: 25.0 mg/kg/injection, schedule: Q01DX009 (ip), vehicle: Klucel (hydroxypropylcellulose) (HPC).
Where [4] appears, read: dose: 12.5 mg/kg/injection, schedule: Q01DX009 (ip), vehicle: saline.
Where [5] appears, read: dose: 25.0 mg/kg/injection, schedule: Q01DX009 (ip), vehicle: saline.
Where [6] appears, read: dose: 50.0 mg/kg/injection, schedule: Q01DX009 (ip), vehicle: saline.
[7] abbreviates: dose: 200.0 mg/kg/injection, schedule: Q01DX009 (ip), vehicle: saline with Tween-80.
The mark [8] stands for this setting: dose: 100.0 mg/kg/injection, schedule: Q01DX009 (ip), vehicle: saline.
Where [9] appears, read: dose: 200.0 mg/kg/injection, schedule: Q01DX009 (ip), vehicle: saline.
Setting [10] is: dose: 50.0 mg/kg/injection, schedule: Q01DX009 (ip), vehicle: Klucel (hydroxypropylcellulose) (HPC).
[11] abbreviates: dose: 100.0 mg/kg/injection, schedule: Q01DX009 (ip), vehicle: Klucel (hydroxypropylcellulose) (HPC).
Setting [12] is: dose: 200.0 mg/kg/injection, schedule: Q01DX009 (ip), vehicle: Klucel (hydroxypropylcellulose) (HPC).

Values joined by “and” are separate entries in the source; they are usually repeats but may differ in a detail not shown here. Equal values may be shown once. Inconclusive results and toxic doses are left out.

With `O=C(O)C1C2CC3C(C2)C31.[Ag]` (stereo not drawn), the T/C was 90 % of control under setting [1], 88 % of control under setting [2] and 100 % of control under setting [3].

As to `COc1ccc(C(=O)C(=O)c2ccc(OC)c(OC)c2)cc1OC`, the T/C reads like this: (dose: 1.56 mg/kg/injection, schedule: Q01DX009 (ip), vehicle: saline) 101 % of control; (dose: 3.13 mg/kg/injection, schedule: Q01DX009 (ip), vehicle: saline) 99 % of control; (dose: 6.25 mg/kg/injection, schedule: Q01DX009 (ip), vehicle: saline) 97 % of control.

Consider `CCOc1ccc2c(c1)/C(=C\C=C\C1CC(C)C3CC(OCC)CCC3N1CC)CC(C)N2CC` (stereo not drawn), for which the T/C was 97 % of control (dose: 1.25 mg/kg/injection, schedule: Q01DX009 (ip), vehicle: saline + alcohol); 100 % of control (dose: 2.5 mg/kg/injection, schedule: Q01DX009 (ip), vehicle: saline + alcohol); 113 % of control (dose: 5.0 mg/kg/injection, schedule: Q01DX009 (ip), vehicle: saline + alcohol).

`CCN(CC)CCCC(C)Nc1c2ccc(C)cc2nc2ccc(OC)cc12` (stereo not drawn): the T/C by setting is: under setting [4], 102 % of control; under setting [5], 111 % of control.

With `COc1ccccc1N=Nc1cc(S(=O)(=O)O)c2ccccc2c1O`, the T/C is 95 % of control under setting [4], 92 % of control under setting [5], 98 % of control under setting [6] and 87 % of control under setting [7].

With `c1cnc2ncncc2n1`, the T/C was 110 % of control under setting [4]; 107 % of control under setting [5]; 97 % of control under setting [6]; 91 % of control under setting [8]; 99 % of control under setting [9].

For `NC(N)=NS(=O)(=O)c1ccc(NCc2c3ccccc3nc3ccccc23)cc1`, the T/C reads like this: under setting [3], 159 % of control; under setting [10], 184 % of control; under setting [11], 213 % of control; under setting [12], 238 % of control; (dose: 400.0 mg/kg/injection, schedule: Q01DX009 (ip), vehicle: Klucel (hydroxypropylcellulose) (HPC)) 238 % of control; (dose: 800.0 mg/kg/injection, schedule: Q01DX009 (ip), vehicle: Klucel (hydroxypropylcellulose) (HPC)) 250 % of control.

In the case of `C/C=C(\C)c1cc(=O)c2c(C)cc3c(c2o1)C(=O)c1c(O)c(C2CC(C)(N(C)C)C(OC(C)=O)C(C)O2)cc(C2CC(N(C)C)C(O)C(C)O2)c1C3=O` (stereo not drawn), the T/C by setting is: (dose: 0.15 mg/kg/injection, schedule: Q01DX009 (ip), vehicle: saline) 110 % of control; (dose: 0.15 mg/kg/injection, schedule: Q01DX009 (ip), vehicle: suspension in saline) 102 % of control; (dose: 0.31 mg/kg/injection, schedule: Q01DX009 (ip), vehicle: suspension in saline) 114 % of control; (dose: 0.62 mg/kg/injection, schedule: Q01DX009 (ip), vehicle: suspension in saline) 109 % of control.

For `CCN(C)N=Nc1ccc(C(N)=O)cc1`, the T/C under setting [1] is 117 % of control and 95 % of control; the T/C under setting [2] was 104 % of control and 106 % of control; the T/C under setting [3] is 95 % of control and 101 % of control; the T/C under setting [10] is 110 % of control and 102 % of control.

For `Cc1nnc(SCC2=C(C(=O)O)N3C(=O)C(NC(=O)Cn4cnnn4)C3SC2)s1` (stereo not drawn), the T/C was 91 % of control under setting [6], 93 % of control under setting [8] and 95 % of control under setting [9].

For the compound `O=C(Oc1cc(Cl)ccc1Cl)c1ccccc1`, the T/C (dose: 50.0 mg/kg/injection, schedule: Q01DX009 (ip), vehicle: saline with Tween-80) is 96 % of control; the T/C (dose: 100.0 mg/kg/injection, schedule: Q01DX009 (ip), vehicle: saline with Tween-80) was 97 % of control; the T/C under setting [7] is 91 % of control; the T/C (dose: 400.0 mg/kg/injection, schedule: Q01DX009 (ip), vehicle: saline with Tween-80) is 87 % of control.

Take `O=C(O)CC(=O)O.[NH-]CC[NH-].[Pt+2]`: the T/C is, setting by setting: (dose: 12.5 mg/kg/injection, schedule: Q01DX009 (ip), vehicle: dextrose) 175 % of control; (dose: 25.0 mg/kg/injection, schedule: Q01DX009 (ip), vehicle: dextrose) 86 % of control.

Regarding `COc1cccc2c1C(=O)c1c(O)c3c(c(O)c1C2=O)CC(O)(/C(C)=N/NC(=O)CCCCC(=O)N/N=C(\C)C1(O)Cc2c(O)c4c(c(O)c2C(OC2CC(N)C(O)C(C)O2)C1)C(=O)c1c(OC)cccc1C4=O)CC3OC1CC(N)C(O)C(C)O1` (stereo not drawn), the T/C by setting is: (dose: 1.56 mg/kg/injection, schedule: Q01DX009 (ip), vehicle: water) 191 % of control; (dose: 3.12 mg/kg/injection, schedule: Q01DX009 (ip), vehicle: water) 216 % of control; (dose: 6.25 mg/kg/injection, schedule: Q01DX009 (ip), vehicle: water) 335 % of control.

As to `N#CC(Br)(Br)C(N)=O`, the T/C reads like this: (dose: 0.31 mg/kg/injection, schedule: Q01DX009 (ip), vehicle: saline) 96 % of control; (dose: 1.25 mg/kg/injection, schedule: Q01DX009 (ip), vehicle: saline) 87 % of control; (dose: 37.5 micrograms/kg/injection, schedule: Q01DX009 (ip), vehicle: saline) 98 % of control; (dose: 75.0 micrograms/kg/injection, schedule: Q01DX009 (ip), vehicle: saline) 98 % of control; (dose: 150.0 micrograms/kg/injection, schedule: Q01DX009 (ip), vehicle: saline) 96 % of control; (dose: 300.0 micrograms/kg/injection, schedule: Q01DX009 (ip), vehicle: saline) 93 % of control.

In the case of `O=NN(CCCl)C(=O)NC1CCC(=O)NC1=O` (stereo not drawn), the T/C is, setting by setting: (dose: 0.8 mg/kg/injection, schedule: Q01DX005 (ip), vehicle: saline + alcohol) 118 % of control; (dose: 0.8 mg/kg/injection, schedule: Q01DX005 (iv), vehicle: saline + alcohol) 96 % of control; (dose: 1.6 mg/kg/injection, schedule: Q01DX005 (ip), vehicle: saline + alcohol) 155 % of control; (dose: 2.0 mg/kg/injection, schedule: Q01DX005 (ip), vehicle: saline + alcohol) 175 % of control; (dose: 2.0 mg/kg/injection, schedule: Q01DX005 (iv), vehicle: saline + alcohol) 102 % of control; (dose: 3.2 mg/kg/injection, schedule: Q01DX005 (ip), vehicle: saline + alcohol) 197 % of control. In addition, the T/C is 151 % of control (dose: 3.2 mg/kg/injection, schedule: Q01DX005 (iv), vehicle: saline + alcohol); 195 % of control (dose: 4.0 mg/kg/injection, schedule: Q01DX001 (ip), vehicle: saline + alcohol); 124 % of control (dose: 4.0 mg/kg/injection, schedule: Q01DX001 (iv), vehicle: saline + alcohol); 300 % of control (dose: 4.0 mg/kg/injection, schedule: Q01DX005 (ip), vehicle: saline + alcohol); 180 % of control (dose: 4.0 mg/kg/injection, schedule: Q01DX005 (iv), vehicle: saline + alcohol); 275 % of control (dose: 6.4 mg/kg/injection, schedule: Q01DX005 (ip), vehicle: saline + alcohol). Further, the T/C (dose: 8.0 mg/kg/injection, schedule: Q01DX001 (ip), vehicle: saline + alcohol) was 200 % of control and 291 % of control; the T/C (dose: 8.0 mg/kg/injection, schedule: Q01DX001 (iv), vehicle: saline + alcohol) is 162 % of control; the T/C (dose: 8.0 mg/kg/injection, schedule: Q01DX005 (ip), vehicle: saline + alcohol) is 105 % of control; the T/C (dose: 8.0 mg/kg/injection, schedule: Q01DX005 (iv), vehicle: saline + alcohol) is 150 % of control; the T/C (dose: 8.0 mg/kg/injection, schedule: Q01DX005 (oral), vehicle: saline + alcohol) is 210 % of control; the T/C (dose: 16.0 mg/kg/injection, schedule: Q01DX001 (ip), vehicle: saline + alcohol) is 255 % of control and 317 % of control. Moreover, the T/C (dose: 16.0 mg/kg/injection, schedule: Q01DX001 (iv), vehicle: saline + alcohol) was 194 % of control and 216 % of control; the T/C (dose: 16.0 mg/kg/injection, schedule: Q01DX001 (oral), vehicle: saline + alcohol) is 183 % of control; the T/C (dose: 32.0 mg/kg/injection, schedule: Q01DX001 (oral), vehicle: saline + alcohol) is 89 % of control.

For `Cc1cc(N2C(=O)CCSC2=S)ccc1Cl`, the T/C is 92 % of control and 95 % of control under setting [2]; 90 % of control and 98 % of control under setting [3]; 94 % of control under setting [10]; 94 % of control and 98 % of control under setting [11]; 90 % of control and 97 % of control under setting [12].
